This is an account of results in patent US20220235049A1, “SUBSTITUTED PYRROLO [2, 3-b] PYRIDINE AND PYRAZOLO [3,4-b] PYRIDINE DERIVATIVES AS PROTEIN KINASE INHIBITORS” (Fochon Pharmaceuticals, Ltd., priority 2019, published 2022).

The assay concerns DOHH2 cells. Description: Cell proliferation assay in DOHH2 cells (MTS). Particulars: Homo sapiens, DOHH-2, 120 h. It counts as cell-based. The method, then: To investigate whether a compound is able to inhibit the activity of BTK in cells, a mechanism-based assay using DOHH2 (DSMZ catalog #: ACC47) cell was developed. In this assay, inhibition of BTK was detected by the inhibition of DOHH2 cells proliferation. Cells were collected and plated onto 96-well plates at the optimized cell density (5000 cells/well). Plates were incubated at 37° C., with 5% CO2 for 4 h. Compounds were serially diluted and added to the plates with the final concentrations as 10000, 3333.3, 1111.1, 370.4, 123.5, 41.2, 13.7, 4.6 and 1.5 nM. Plates were incubated at 37° C., with 5% CO2 for 120 h. An aliquot of 20 μL MTS/100 μL medium mixture solution were added to each well and the plates were incubated for exactly 2 h. The reaction was stopped by adding 25 μL 10% SDS to each well. The absorbance was measured by a microplate reader at 490 nm and 650 nm (reference wavelength). IC50 was calculated using GraphPad Prism 5.0.
Select compounds prepared as described above were assayed according to the biological procedures described herein.
Take `Cc1cc(Oc2cccc(F)c2)ccc1C(=O)c1c[nH]c2ncc(C#N)c(N[C@@H]3CC[C@@H](CO)OC3)c12` [Example 49, 3-(4-(3-fluorophenoxy)-2-methylbenzoyl)-4-(((3R,6S)-6-(hydroxymethyl)tetrahydro-2H-pyran-3-yl)amino)-1H-pyrrolo[2,3-b]pyridine-5-carbonitrile]: it took 100 nM to reach half-maximal inhibition (IC50).

`O=C(c1ccc(Oc2ccccc2)cc1F)c1c[nH]c2ncc(F)c(N[C@@H]3CC[C@@H](CO)OC3)c12` [Example 58, (5-fluoro-4-(((3R,6S)-6-(hydroxymethyl)tetrahydro-2H-pyran-3-yl)amino)-1H-pyrrolo[2,3-b]pyridin-3-yl)(2-fluoro-4-phenoxyphenyl)methanone] had an IC50 of 23 nM.

Compound `CCOc1cnc2[nH]cc(C(=O)c3ccc(Oc4ccccc4F)cc3C)c2c1N[C@@H]1CC[C@@H](CO)OC1` [Example 64, (5-ethoxy-4-(((3R,6S)-6-(hydroxymethyl)tetrahydro-2H-pyran-3-yl)amino)-1H-pyrrolo[2,3-b]pyridin-3-yl)(4-(2-fluorophenoxy)-2-methylphenyl)methanone] displayed an IC50 of 1 nM. Compared with the last compound, the IC50 is about 23-fold lower.

Consider `CCOc1cnc2[nH]cc(C(=O)c3ccc(Oc4ccccc4F)cc3Cl)c2c1N[C@@H]1CC[C@@H](CO)OC1` [Example 65, (2-chloro-4-(2-fluorophenoxy)phenyl)(5-ethoxy-4-(((3R,6S)-6-(hydroxymethyl)tetrahydro-2H-pyran-3-yl)amino)-1H-pyrrolo[2,3-b]pyridin-3-yl)methanone], for which the half-inhibitory concentration (IC50) is 1 nM. That is a single-digit nanomolar value.

In the case of `COc1cnc2[nH]cc(C(=O)c3ccc(Oc4ccccc4F)cc3)c2c1N[C@@H]1CC[C@@H](CO)OC1` [Example 73, (4-(2-fluorophenoxy)phenyl)(4-(((3R,6S)-6-(hydroxymethyl)tetrahydro-2H-pyran-3-yl)amino)-5-methoxy-1H-pyrrolo[2,3-b]pyridin-3-yl)methanone], the IC50 was 1 nM.

`COc1cnc2[nH]cc(C(=O)c3cnc(Oc4ccccc4F)cc3C)c2c1N[C@@H]1CC[C@@H](CO)OC1` [Example 76, (6-(2-fluorophenoxy)-4-methylpyridin-3-yl)(4-(((3R,6S)-6-(hydroxymethyl)tetrahydro-2H-pyran-3-yl)amino)-5-methoxy-1H-pyrrolo[2,3-b]pyridin-3-yl)methanone] returned an IC50 of 47 nM.

`COc1cnc2[nH]cc(C(=O)c3ccc(Oc4ccccc4F)cc3Cl)c2c1N[C@@H]1CC[C@@H](CO)OC1` [Example 77, (2-chloro-4-(2-fluorophenoxy)phenyl)(4-(((3R,6S)-6-(hydroxymethyl)tetrahydro-2H-pyran-3-yl)amino)-5-methoxy-1H-pyrrolo[2,3-b]pyridin-3-yl)methanone] registered an IC50 of 1 nM.

Turning to `COc1cnc2[nH]cc(C(=O)c3ccc(Oc4ccccc4F)cc3C)c2c1N[C@@H]1CC[C@@H](CO)OC1` [Example 78, (4-(2-fluorophenoxy)-2-methylphenyl)(4-(((3R,6S)-6-(hydroxymethyl)tetrahydro-2H-pyran-3-yl)amino)-5-methoxy-1H-pyrrolo[2,3-b]pyridin-3-yl)methanone], half-maximal inhibition (IC50) was put at 1 nM.

The compound `COc1cc(Oc2ccccc2F)ccc1C(=O)c1c[nH]c2ncc(OC)c(N[C@@H]3CC[C@@H](CO)OC3)c12` [Example 81, (4-(2-fluorophenoxy)-2-methoxyphenyl)(4-(((3R,6S)-6-(hydroxymethyl)tetrahydro-2H-pyran-3-yl)amino)-5-methoxy-1H-pyrrolo[2,3-b]pyridin-3-yl)methanone] showed a half-maximal inhibitory concentration (IC50) of 19 nM.

`Cc1cc(Oc2ccccc2F)ccc1C(=O)c1c[nH]c2ncc(Cl)c(N[C@@H]3CC[C@@H](CO)OC3)c12` [Example 87, (5-chloro-4-(((3R,6S)-6-(hydroxymethyl)tetrahydro-2H-pyran-3-yl)amino)-1H-pyrrolo[2,3-b]pyridin-3-yl)(4-(2-fluorophenoxy)-2-methylphenyl)methanone] displayed an IC50 of 17 nM.
